Assay results published in the supplement of paper PMC10307832.

Assays:
Assay in all cases: relative viability (nuclei count vs DMSO), 5 days (fraction); higher = more cells survive
TGX 221 + Trametinib = compound: CC1=CN2C(=O)C=C(N=C2C(=C1)C(C)NC3=CC=CC=C3)N4CCOCC4 [TGX 221] + CC(=O)Nc1cccc(-n2c(=O)n(C3CC3)c(=O)c3c(Nc4ccc(I)cc4F)n(C)c(=O)c(C)c32)c1 [Trametinib] (partner 0.02 µM)
Method in brief: (§1)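 Relative viability equals treated-well nuclei counts divided by vehicle-well nuclei counts. Counts came from 4× images of lung cancer cell lines grown in 1536-well plates for 5 days after pin-tool dosing on the day after seeding. Dosing used one drug alone or a fixed anchor-drug dose plus five library-drug doses (not always all listed) in √10 steps, and values are medians of duplicate plates.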

[1] = compound: C1=CC=C(C(=C1)C2=CC=C(C=C2)C3=CSC4=C3C(=C(C(=O)N4)C#N)O)O + COc1cccc2cc(-c3nc([C@H]4CC[C@H](C(=O)O)CC4)n4ncnc(N)c34)[nH]c12 [OSI-027] (partner 0.5 µM)
Method in brief: as §1

[2] = compound: C1=CC=C(C(=C1)C2=CC=C(C=C2)C3=CSC4=C3C(=C(C(=O)N4)C#N)O)O + Cc1nc(Nc2ncc(C(=O)Nc3c(C)cccc3Cl)s2)cc(N2CCN(CCO)CC2)n1 [Dasatinib] (partner 0.075 µM)
Method in brief: as §1

TGX 221 + Phenformin = compound: CC1=CN2C(=O)C=C(N=C2C(=C1)C(C)NC3=CC=CC=C3)N4CCOCC4 [TGX 221] + N=C(N)NC(=N)NCCc1ccccc1 [Phenformin] (partner 250 µM)
Method in brief: as §1

Row | Cell Line | relative viability (TGX 221 + Trametinib; first compound 0.08 µM) | relative viability (TGX 221 + Trametinib; first compound 0.253 µM) | relative viability (TGX 221 + Trametinib; first compound 0.8 µM) | relative viability (TGX 221 + Trametinib; first compound 2.53 µM) | relative viability (TGX 221 + Trametinib; first compound 8 µM) | relative viability ([1]; first compound 0.08 µM) | relative viability ([1]; first compound 0.253 µM) | relative viability ([1]; first compound 0.8 µM) | relative viability ([1]; first compound 2.53 µM) | relative viability ([1]; first compound 8 µM) | relative viability ([2]; first compound 0.08 µM) | relative viability ([2]; first compound 0.253 µM) | relative viability ([2]; first compound 0.8 µM) | relative viability ([2]; first compound 2.53 µM) | relative viability ([2]; first compound 8 µM) | relative viability (TGX 221 + Phenformin; first compound 0.08 µM) | relative viability (TGX 221 + Phenformin; first compound 0.253 µM) | relative viability (TGX 221 + Phenformin; first compound 0.8 µM) | relative viability (TGX 221 + Phenformin; first compound 2.53 µM) | relative viability (TGX 221 + Phenformin; first compound 8 µM)
1 | 201T | 0.704 | 0.728 | 0.703 | 0.703 | 0.697 | 0.709 | 0.665 | 0.795 | 0.699 | 0.531 | 0.564 | 0.597 | 0.521 | 0.516 | 0.654 | 0.459 | 0.436 | 0.428 | 0.434 | 0.439
2 | A549 | – | – | – | – | – | – | – | – | – | – | – | – | – | – | – | 0.198 | 0.138 | 0.185 | 0.209 | 0.152
3 | A-427 | 0.686 | 0.747 | 0.771 | 0.627 | 0.7 | 0.363 | 0.505 | 0.514 | 0.432 | 0.452 | 0.645 | 0.67 | 0.716 | 0.658 | 0.619 | 0.341 | 0.297 | 0.307 | 0.39 | 0.326
4 | ABC-1 | – | – | – | – | – | 0.37 | 0.477 | 0.478 | 0.424 | 0.257 | 0.526 | 0.65 | 0.559 | 0.542 | 0.432 | 0.228 | 0.228 | 0.19 | 0.217 | 0.253
5 | BEN | 1.03 | 0.969 | 0.93 | 0.998 | 0.891 | 0.305 | 0.303 | 0.497 | 0.313 | 0.286 | 0.287 | 0.284 | 0.312 | 0.318 | 0.318 | 0.24 | 0.257 | 0.273 | 0.27 | 0.265
6 | CAL-12T | 0.272 | 0.299 | 0.316 | 0.33 | 0.325 | 0.589 | 1.14 | 0.591 | 0.59 | 0.431 | 0.389 | 0.353 | 0.435 | 0.36 | 0.362 | 0.629 | 0.55 | 0.62 | 0.56 | 0.661
7 | COR-L23 | 0.507 | 0.592 | 0.573 | 0.577 | 0.523 | 0.614 | 0.715 | 0.534 | 1.11 | 0.723 | 0.492 | 0.48 | 0.61 | 0.548 | 0.272 | 0.436 | 0.4 | 0.445 | 0.485 | 0.457
8 | COR-L 105 | 0.501 | 0.431 | 0.482 | 0.43 | 0.419 | 0.72 | 0.737 | 0.734 | 0.628 | 0.602 | 0.337 | 0.301 | 0.272 | 0.302 | 0.309 | 0.514 | 0.45 | 0.569 | 0.572 | 0.412
9 | ChaGo-K-1 | 0.952 | 0.871 | 0.857 | 0.922 | 0.843 | 0.475 | 0.569 | 0.485 | 0.571 | 0.528 | 0.48 | 0.614 | 0.661 | 0.595 | 0.542 | 0.479 | 0.512 | 0.481 | 0.456 | 0.494
10 | EKVX | 0.3 | 0.322 | 0.291 | 0.273 | 0.304 | 0.777 | 0.775 | 0.71 | 0.724 | 0.509 | 0.47 | 0.724 | 0.671 | 0.621 | 0.403 | 0.213 | 0.225 | 0.232 | 0.22 | 0.221
11 | EMC-BAC-2 | 0.826 | 1.02 | 0.897 | 0.864 | 0.792 | 0.41 | 0.411 | 0.312 | 0.355 | 0.357 | 0.35 | 0.332 | 0.306 | 0.283 | 0.316 | 0.528 | 0.508 | 0.506 | 0.499 | 0.519
12 | EPLC-272H | 0.246 | 0.269 | 0.271 | 0.242 | 0.254 | 0.253 | 0.286 | 0.263 | 0.27 | 0.289 | 0.311 | 0.306 | 0.339 | 0.407 | 0.303 | 0.298 | 0.275 | 0.291 | 0.269 | 0.27
13 | H3255 | 0.583 | 0.537 | 0.538 | 0.576 | 0.529 | 0.684 | 0.599 | 0.671 | 0.553 | 0.532 | 0.369 | 0.352 | 0.255 | 0.39 | 0.35 | 0.369 | 0.382 | 0.326 | 0.374 | 0.354
14 | HARA | 0.722 | 0.655 | 0.715 | 0.614 | 0.429 | 0.386 | 0.661 | 0.524 | 0.428 | 0.297 | 0.241 | 0.228 | 0.346 | 0.292 | 0.192 | 0.563 | 0.422 | 0.426 | 0.424 | 0.543
15 | HCC-15 | 0.373 | 0.335 | 0.368 | 0.376 | 0.337 | 0.667 | 0.735 | 0.699 | 0.704 | 0.571 | 0.522 | 0.627 | 0.601 | 0.673 | 0.61 | 0.482 | 0.471 | 0.483 | 0.451 | 0.497
16 | HCC-44 | 1.07 | 1.06 | 1.14 | 1.13 | 0.945 | – | 0.588 | 0.518 | 0.558 | 0.523 | – | – | – | – | – | 0.157 | 0.212 | 0.212 | 0.201 | 0.177
17 | HCC-78 | 0.735 | 0.586 | 0.757 | 0.551 | 0.469 | 0.42 | 0.405 | 0.397 | 0.381 | 0.326 | 0.354 | 0.388 | 0.327 | 0.363 | 0.239 | 0.675 | 0.641 | 0.533 | 0.558 | 0.604
18 | HCC-366 | 0.288 | 0.325 | 0.311 | 0.235 | 0.239 | 1.32 | 1.18 | 0.875 | 0.945 | 0.719 | 0.505 | 0.844 | 0.64 | 0.737 | 0.353 | 0.617 | 0.575 | 0.642 | 0.572 | 0.613
19 | HCC-827 | 0.556 | 0.473 | 0.478 | 0.44 | 0.493 | 0.691 | 0.862 | 0.699 | 0.881 | 0.739 | 0.315 | 0.469 | 0.313 | 0.403 | 0.224 | 0.386 | 0.4 | 0.344 | 0.359 | 0.334
20 | HOP-62 | 0.386 | 0.351 | 0.338 | 0.252 | 0.298 | 0.795 | 0.728 | 0.591 | 0.958 | 0.756 | 0.528 | 0.573 | 0.685 | 0.67 | 0.501 | 0.641 | 0.639 | 0.728 | 0.714 | 0.777
21 | LC-2-ad | 0.846 | 0.906 | 0.927 | 0.885 | 0.858 | 0.778 | 0.951 | 0.822 | 0.743 | 0.759 | 0.367 | 0.545 | 0.426 | 0.694 | 0.475 | 0.556 | 0.526 | 0.569 | 0.67 | 0.599
22 | LCLC-97TM1 | 0.178 | 0.172 | 0.22 | 0.187 | 0.185 | 0.406 | 1.02 | 0.72 | 0.707 | 0.425 | 0.767 | 0.979 | 0.98 | 0.936 | 0.806 | 0.394 | 0.399 | 0.419 | 0.405 | 0.418
23 | LCLC-103H | 0.65 | 0.639 | 0.626 | 0.683 | 0.651 | 0.372 | 0.39 | 0.519 | 0.469 | 0.434 | 0.33 | 0.415 | 0.458 | 0.463 | 0.404 | 0.302 | 0.344 | 0.311 | 0.321 | 0.324
24 | LK-2 | 0.725 | 0.716 | 0.847 | 0.823 | 0.749 | – | 0.161 | 0.178 | 0.218 | 0.203 | – | 0.269 | 0.276 | 0.28 | 0.253 | 0.382 | 0.474 | 0.498 | 0.348 | 0.567
25 | LOU-NH91 | 0.818 | 0.741 | 0.756 | 0.774 | 0.709 | 0.765 | 0.721 | 0.71 | 0.727 | 0.69 | 0.493 | 0.589 | 0.506 | 0.542 | 0.489 | 0.679 | 0.74 | 0.692 | 0.784 | 0.674
26 | LU99A | 0.507 | 0.479 | 0.557 | 0.505 | 0.493 | 0.3 | 0.263 | 0.27 | 0.345 | 0.301 | 0.528 | 0.608 | 0.61 | 0.563 | 0.442 | 0.785 | 0.831 | 0.9 | 0.93 | 0.834
27 | NCI-H1563 | – | – | – | – | – | 0.672 | 0.746 | 0.7 | 0.774 | 0.745 | 0.469 | 0.553 | 0.529 | 0.439 | 0.477 | 0.708 | 0.618 | 0.671 | 0.654 | 0.597
28 | NCI-H1623 | – | – | – | – | – | 0.469 | 0.453 | 0.382 | 0.427 | 0.419 | 0.484 | 0.548 | 0.496 | 0.603 | 0.546 | 0.543 | 0.602 | 0.62 | 0.566 | 0.555
29 | NCI-H1648 | – | 0.403 | 0.569 | 0.435 | 0.471 | 0.312 | – | 0.224 | 0.27 | 0.311 | – | – | – | – | – | – | – | – | – | –
